Source: patent US6987017B2, “Methods for producing L-isoleucine” (Massachusetts Institute of Technology, priority 1999, dated 2006)

Columns and labels:
[1] = system: C. glutamicum ATCC 21799 pAPE7 tdcB; type: cell-based, Corynebacterium glutamicum; conditions: defined medium with supplement (casamino acids 2 g·l^−1, amino acids 0.5 g·l^−1 each), 150 mg/l IPTG, flasks
Experimental: Defined medium for Corynebacterium glutamicum contained the following ingredients (per liter): glucose, 35 g; NaCl, 2 g; citrate (trisodium salt, dihydrate), 3 g; CaCl2.2H2O, 0.1 g; MgSO4.7H2O, 0.5 g; Na2EDTA.2H2O, 75 mg; FeSO4.7H2O, 50 mg; 100× salt solution, 20 ml; K2HPO4, 4 g; KH2PO4, 2 g; (NH4)2SO4, 7.5 g; urea, 3.75 g; leucine 0.85 g; thiamine, 0.45 mg; biotin, 0.45 mg; pantothenic acid, 4.5 mg (pH 7.0). The salt solution contained the following ingredients (per liter): MnSO4, 200 mg; Na2B4O7.10H2O, 20 mg; (NH4)6Mo7O24.4H2O, 10 mg; FeCl3.6H2O, 200 mg; ZnSO4.7H2O, 50 mg; CuCl2.2H2O, 20 mg (pH 2.0). When appropriate, kanamycin (150 mg/liter) and isopropyl-β-D-thiogalactopyranoside (IPTG) (150 mg/l) was used.
For the growth study with amino acid supplements, the defined medium was complemented with Bacto® casamino acids (Difco, Detroit, Mich.) at a concentration of 2 g·l^−1 or with amino acid (alanine, glycine, methionine or valine) at a concentration of 0.5 g·l^−1 each.
Valine and methionine were chosen to test due to their direct connection with the isoleucine pathway, and alanine and glycine for their indirect connection through the use of pyruvate, which is also a substrate for the isoleucine pathway.

[2] = system: C. glutamicum ATCC 21799 harboring pAPE7; test: IPTG induction of catabolic threonine dehydratase in batch fermentation of ATCC 21799 (pAPE7); type: cell-based, Corynebacterium glutamicum; conditions: IPTG 150 mg/l
Experimental: (§1) For determination of threonine dehydratase activity, the assay mixture contained 40 mM threonine, 1 mM pyridoxal phosphate, crude extract and 100 mM potassium phosphate buffer, pH 8.0 in a final volume of 1 ml. The reaction was started with the addition of threonine and terminated by the addition of 1 ml solution containing 1% semicarbazide and 0.9% sodium acetate. After a 15 min incubation at room temperature, the amount of alpha-ketobutyrate formed at various intervals was measured spectrophotometrically as its semicarbazone derivative at 254 nm (=0.52 mmol·cm^−1). Relevant standards and controls were carried out in the same manner. For specific determination of catabolic threonine dehydratase activity, the assay mixture contained 20 mM isoleucine in order to inhibit the anabolic threonine dehydratase.
(§2) In FIGS. 3-6, the results of the enzymatic assays are expressed in terms of relative expression of threonine dehydratase compared to wild type expression as the ratio between the specific activity of the enzyme of a strain and the specific activity of the wild type. Each assay was replicated five times, and the results were reproducible within 15%.
(§3) Starter cultures of Corynebacterium glutamicum were prepared by transferring one colony from LB agar plates to 5 ml of LB medium. These cultures were incubated for two days at 30° C. and 200 rpm. […]

C. glutamicum ATCC 21799 = test: IPTG addition in batch fermentation of wild type ATCC 21799; type: cell-based, Corynebacterium glutamicum; conditions: wild type culture, IPTG 150 mg/l
Experimental: as §1
In FIGS. 3-6, the results of the enzymatic assays are expressed in terms of relative expression of threonine dehydratase compared to wild type expression as the ratio between the specific activity of the enzyme of a strain and the specific activity of the wild type. […]
C. glutamicum ATCC 21799 was grown twice in defined medium in a 4-liter reactor. […] A concentration of isoleucine of 50 mg·l^−1 was detected at the end of both cultures. Oxygenation of the cultures being sufficient, neither lactate nor acetate was detected during the fermentation.

[3] = system: C. glutamicum ATCC 21799 harboring pAPE13; test: IPTG induction of threonine dehydratase in batch fermentation of ATCC 21799 (pAPE13); type: cell-based, Corynebacterium glutamicum; conditions: IPTG 150 mg/l added at 1.5 g cell dry weight·l^−1
Experimental: as §1, §2, §3

AHAS = conditions: Eggeling et al. 1987; cited from earlier work
tdcB gene product = biological target: T1, tdcB gene product (Escherichia coli, UniProt P0AGF6); test: Threonine dehydratase activity of E. coli AB1255 (pAPE5) crude extracts in the presence of isoleucine; type: biochemical; conditions: isoleucine up to 47 mM; consistent activity
T1 construct: tdcB and ilvA coding regions were amplified by the Polymerase Chain Reaction (PCR); expressed in transfected cells; host or cells: E. coli AB1255 carrying pAPE5 (pTrc99a-based, trc:tdcB); cell-free crude extract
T1 sequence (P0AGF6 whole entry): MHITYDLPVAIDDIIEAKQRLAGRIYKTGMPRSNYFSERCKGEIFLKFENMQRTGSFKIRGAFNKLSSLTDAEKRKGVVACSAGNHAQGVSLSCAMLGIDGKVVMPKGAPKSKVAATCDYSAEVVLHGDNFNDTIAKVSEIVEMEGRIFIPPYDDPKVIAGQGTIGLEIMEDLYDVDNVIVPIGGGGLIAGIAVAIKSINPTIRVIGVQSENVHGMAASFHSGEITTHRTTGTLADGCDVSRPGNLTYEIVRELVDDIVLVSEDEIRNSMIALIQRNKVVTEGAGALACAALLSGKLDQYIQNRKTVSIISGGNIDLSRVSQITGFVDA
Experimental: (§4) Enzyme assays were performed with cell free crude extracts, prepared by the following method. Cells were harvested by centrifugation for 10 min at 5000×g at 4° C. and washed with 10 ml of the enzyme assay buffer (100 mM Tris-HCl, pH 7.5, containing 20 mM KCl, 5 mM MnSO4, 0.1 mM EDTA, and 2 mM dithiothreitol) (Jetten, M. S. M., et al., Appl. Microbiol. Biotechnol. 41:47-52 (1994)). The cell pellet was resuspended in the same buffer containing a protease inhibitor cocktail (Boehringer Mannheim, Germany) so that the final concentration was 20 g dry cell weight·l^−1. Resuspended cells were disrupted with a glass bead mixer (5100 Mixer-Mill, SPEX, Metuchen, N.J.). […] Protein concentrations were determined by the method of Bradford (Bradford, M. M., Anal. Biochem. 72:248-254 (1976)) with the Bio-Rad (Hercules, Calif.) protein assay kit using bovine serum albumin as a standard.
(§5) For determination of threonine dehydratase activity, the assay mixture contained 40 mM threonine, 1 mM pyridoxal phosphate, crude extract and 100 mM potassium phosphate buffer, pH 8.0 in a final volume of 1 ml. […] After a 15 min incubation at room temperature, the amount of alpha-ketobutyrate formed at various intervals was measured spectrophotometrically as its semicarbazone derivative at 254 nm (=0.52 mmol·cm^−1). […]

[4] = biological target: T2, endogenous threonine dehydratase (encoded by ilvA) (Corynebacterium glutamicum, UniProt Q04513); conditions: C. glutamicum MH20-22B; Morbach et al. 1995; cited from earlier work
T2 construct: host or cells: Corynebacterium glutamicum MH20-22B
T2 sequence (Q04513 1-436): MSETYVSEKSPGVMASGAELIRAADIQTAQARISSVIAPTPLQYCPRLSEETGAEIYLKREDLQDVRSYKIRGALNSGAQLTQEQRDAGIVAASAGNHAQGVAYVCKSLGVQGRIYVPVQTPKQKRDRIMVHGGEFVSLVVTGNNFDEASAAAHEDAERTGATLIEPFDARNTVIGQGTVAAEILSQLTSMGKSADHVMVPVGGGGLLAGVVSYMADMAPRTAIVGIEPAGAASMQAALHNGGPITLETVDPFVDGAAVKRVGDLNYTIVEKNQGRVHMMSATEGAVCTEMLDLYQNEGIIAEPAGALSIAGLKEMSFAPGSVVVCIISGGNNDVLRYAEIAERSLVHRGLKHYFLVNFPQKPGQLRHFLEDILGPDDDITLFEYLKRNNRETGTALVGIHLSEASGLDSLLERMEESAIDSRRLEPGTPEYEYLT

[5] = biological target: mutated threonine dehydratase V323A (Corynebacterium glutamicum, UniProt Q04513, V323A); conditions: 50 mM isoleucine; Morbach et al. 1995; cited from earlier work
Sequence of mutated threonine dehydratase V323A (Q04513 whole entry V323A): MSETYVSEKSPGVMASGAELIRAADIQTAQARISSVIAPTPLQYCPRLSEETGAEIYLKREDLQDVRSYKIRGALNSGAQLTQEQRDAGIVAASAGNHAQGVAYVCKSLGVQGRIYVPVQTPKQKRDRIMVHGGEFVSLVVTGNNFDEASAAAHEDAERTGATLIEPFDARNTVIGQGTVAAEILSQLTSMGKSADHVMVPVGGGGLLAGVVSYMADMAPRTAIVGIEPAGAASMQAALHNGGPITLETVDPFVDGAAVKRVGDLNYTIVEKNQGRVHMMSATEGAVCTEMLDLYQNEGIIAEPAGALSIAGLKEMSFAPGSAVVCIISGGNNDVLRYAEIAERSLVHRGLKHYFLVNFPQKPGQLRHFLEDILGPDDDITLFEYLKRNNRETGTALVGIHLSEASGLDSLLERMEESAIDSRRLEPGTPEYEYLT

[6] = biological target: T3, Anabolic threonine dehydratase (Corynebacterium glutamicum, UniProt Q04513); test: Isoleucine sensitivity of anabolic (native) threonine dehydratase in crude extracts of C. glutamicum ATCC21799; type: biochemical; conditions: ATCC 21799 crude extract
T3 construct: endogenous in cells; host or cells: Corynebacterium glutamicum ATCC 21799; cell-free crude extract
Experimental: as §4, §5

[7] = biological target: T4, catabolic threonine dehydratase (Escherichia coli, UniProt P0AGF6); test: Isoleucine sensitivity of catabolic threonine dehydratase (tdcB) in crude extracts of C. glutamicum ATCC 21799 (pAPE7); type: biochemical, E. coli
T4 construct: tdcB and ilvA coding regions were amplified by the Polymerase Chain Reaction (PCR); expressed in transfected cells; host or cells: Corynebacterium glutamicum ATCC 21799 carrying pAPE7 (trc:tdcB); cell-free crude extract
T4 sequence (P0AGF6 whole entry): as the sequence (P0AGF6 whole entry) above
Experimental: Enzyme assays were performed with cell free crude extracts, prepared by the following method. Cells were harvested by centrifugation for 10 min at 5000×g at 4° C. and washed with 10 ml of the enzyme assay buffer (100 mM Tris-HCl, pH 7.5, containing 20 mM KCl, 5 mM MnSO4, 0.1 mM EDTA, and 2 mM dithiothreitol) (Jetten, M. S. M., et al., Appl. Microbiol. Biotechnol. 41:47-52 (1994)). The cell pellet was resuspended in the same buffer containing a protease inhibitor cocktail (Boehringer Mannheim, Germany) so that the final concentration was 20 g dry cell weight·l^−1. Resuspended cells were disrupted with a glass bead mixer (5100 Mixer-Mill, SPEX, Metuchen, N.J.). 2.5 ml of bacterial suspension was poured in a frozen steel vial containing 5 g of cold 106 μm-diameter glass beads (Sigma) and one stainless steel ball bearing. The vials containing bacterial suspension and glass beads were vigorously shaken at 4° C. using the mixer by 10 cycles of 30 sec shaking separated by rest cycles of one minute. Cell debris were removed by centrifugation for 20 min at 47000×g at 4° C. The supernatant (crude extract) was then tested for enzyme activity. Protein concentrations were determined by the method of Bradford (Bradford, M. M., Anal. Biochem. 72:248-254 (1976)) with the Bio-Rad (Hercules, Calif.) protein assay kit using bovine serum albumin as a standard.
as §5
In order to confirm the insensitivity to isoleucine of catabolic dehydratase expressed in a lysine producing strain of C. glutamicum, threonine dehydratase activities were measured in crude extracts of strains ATCC21799 and ATCC21799 carrying pAPE7 at different concentrations of isoleucine (FIG. 3). […]

Compound: C[C@H](N)C(=O)O [Alanine, alanine]
- Specific growth rate [1]: 0.17 h⁻¹

Compound: CC(C)[C@H](N)C(=O)O [Valine, valine]
- Specific growth rate [1]: 0.24 h⁻¹

Compound: CSCC[C@H](N)C(=O)O [Methionine, methionine]
- Specific growth rate [1]: 0.26 h⁻¹

Compound: CC(C)S[C@@H]1O[C@H](CO)[C@H](O)[C@H](O)[C@H]1O [IPTG, isopropyl-β-D-thiogalactopyranoside]
- catabolic threonine dehydratase concentration relative to original enzyme after addition of IPTG [2]: 15 fold
- effect of IPTG addition on threonine dehydratase (C. glutamicum ATCC 21799): did not lead to an increase
- increase in the level of threonine dehydratase after addition of IPTG [3]: 20 fold

Compound: NCC(=O)O [Glycine, glycine]
- Specific growth rate [1]: 0.17 h⁻¹

Compound: CCC(=O)C(=O)O [alpha-ketobutyrate]
- affinity of AHAS for alpha-ketobutyrate relative to pyruvate (AHAS): 3 fold

Compound: CC[C@H](C)[C@H](N)C(=O)O [isoleucine]
- threonine dehydratase activity of AB1255 (pAPE5) extracts in the presence of isoleucine (tdcB gene product): about 80 μmol product·min^−1·mg protein^−1
- isoleucine concentration giving complete inhibition of the endogenous threonine dehydratase [4]: 5 mM
- remaining activity of mutated threonine dehydratase V323A [5]: 22%
- isoleucine concentration that totally inhibits the native (anabolic) threonine dehydratase [6]: 15 mM
- remaining activity at 50000 µM ([7]; 50 mM isoleucine, read-out: remaining activity of catabolic threonine dehydratase of E. coli): 70 to 80%
- inhibition at 200000 µM ([7]; 200 mM isoleucine): 40%
- retained original activity of catabolic threonine dehydratase ([7]; 200 mM isoleucine): 60%
